In patent publication US8765720B2, “Combination therapy for the treatment of multiple myeloma” (Cephalon, Inc., priority 2009, dated 2014):

Assays:
in vitro = conditions: human
Source text: The human myeloma cell line RPMI8226 was obtained from American Type Culture Collection (Rockville, Md.). The MM1S myeloma cell line was provided by Dr. Steven Rosen (Northwestern University, Chicago, Ill.). Normal peripheral blood mononuclear cells (PBMCs) were isolated by Histopaque® density gradient centrifugation, according to the manufacturer's protocol (Sigma-Aldrich, St. Louis, Mo.). Myeloma cell lines and PBMCs were maintained in RPMI 1640 (Omega Scientific, Tarzana, Calif.) supplemented with 10% fetal bovine serum, 2 mM L-glutamine, 100 IU/mL penicillin, 100 μg/mL streptomycin, and essential amino acids in an atmosphere of 5% carbon dioxide (CO2) at 37° C.
Cells were seeded at 10^5 cells/100 μL/well in 96-well plates and incubated for 24 hours. RPMI8226 and MM1S cells were cultured in the presence of vehicle, COMPOUND 1, bortezomib, melphalan, COMPOUND 1+bortezomib, or COMPOUND 1+melphalan for 48 hours. After the incubation period, cell viability was quantified using the CellTiter 96® AQueous Non-Radioactive Cell Proliferation Assay (Promega, Madison, Wis.). Each well was treated with MTS (3-(4,5-dimethylthiazol-2-yl)-5-(3-carboxymethoxyphenyl)-2-(4-sulfophenyl)-2H-tetrazolium, inner salt) for 1 to 4 hours, after which absorbance was recorded at 490 nm. The quantity of formazan product as measured by absorbance at 490 nm is directly proportional to the number of living cells in culture.
In order for therapy with two or more PIs to be feasible in vivo, the combination must spare non-neoplastic cells. […] A healthy donor's PBMCs were cultured for 48 hours in the presence of COMPOUND 1 alone, bortezomib alone, or both agents together, and cell viability was quantified by MTS assay.

[1] = system: apoptosis-inducing factor (AIF); experiment: Immunohistochemical analysis of AIF expression in LAGκ-1B tumors; type: in vivo, SCID mice; conditions: COMPOUND 1 1 mg/kg, bortezomib 0.5 mg/kg, alone or both; tumors excised post-treatment
Procedure: LAGκ-1B tumors were fixed in 4% paraformaldehyde and cut into 5 μm sections. Briefly, sections were blocked with Tris-buffered saline with 0.05% Tween-20 (TBST) and 3% BSA for 1 hour at room temperature and then incubated overnight with a rabbit antibody against AIF (Sigma, St. Louis, Mo.). The sections were washed three times with TBST and treated with horse radish […] anti-rabbit antibody (KPL, Gaithersburg, Md.) diluted 1:500 in TBST at room temperature for 2 hours. The slides were washed three times in TBST and placed in 3-amino-9-ethylcarbazole (AEC) buffer for 5 minutes, and color was detected using an AEC kit (Dako, Glostrup, Denmark). Staining was documented using an Olympus BX51 microscope (Olympus Imaging America Inc., Center Valley, Pa.) and analyzed by Microsuite Biological Suite program (Olympus BX51).

RPMI8226 cells [2] = experiment: Apoptotic assay by annexin V and propidium iodide staining; type: cell-based, human; conditions: 2.5 nM for each drug, 30 hours
Procedure: To quantify apoptosis in response to drug treatment, RPMI8226 cells (5×10^5 cells per well) were incubated with vehicle or PIs at 37° C. and 5% CO2 for 30 hours. As a positive control, cells were incubated with 250 ng/mL of actinomycin D for 24 or 48 hours. Cells were then washed twice with phosphate-buffered saline, resuspended in binding buffer (100 mM HEPES/NaOH, pH 7.5 containing 1.4 M NaCl and 25 mM CaCl2), and stained with fluorescein isothiocyanate (FITC)-conjugated annexin V and with the fluorescent dye propidium iodide (PrI), according to the manufacturer's protocol (BioVision, Mountain View, Calif.). For each drug treatment, 1×10^5 gated events were recorded. Cells negative for both PI and annexin V staining were considered live; annexin V-positive, PrI-negative cells were considered early apoptotic; annexin V-positive, PrI-positive cells were considered late apoptotic. Flow cytometric analyses were performed using a Beckman Coulter FC500 cytometer with Cytomics CXP software (Beckman Coulter, Fullerton, Calif.).

MM1S cells = experiment: Cell viability assay (MTS assay), MM1S cells; type: cell-based, human; conditions: Homo sapiens, MM1.S, single-agent bortezomib 0.5 nM, 48 hours, read-out: inhibition of cell viability
Procedure: In vitro synergy between COMPOUND 1 and bortezomib or melphalan was assessed using the median effect method of Chou and Talalay (30). Combination indices (CIs) were calculated separately for each combination. […] CIs between 0.9 and 1.1 were considered to indicate additive drug effects (31).

CD138-negative MM cells = conditions: single agent; cited from earlier work
LAGκ-1B tumor = experiment: Intramuscular LAGκ-1B tumor xenograft model (tumor volume)
Procedure: (§1) Six- to 8-week-old male severe combined immunodeficient (SCID) mice were obtained from the Jackson Laboratory (Bar Harbor, Me.) and maintained in a specific pathogen-free area in our animal resources facility. All animal studies were conducted according to protocols approved by the Institutional Animal Care and Use Committee. Animals were anesthetized with ketamine, xylazine, and isoflurane prior to surgery and were euthanized when tumors reached 2 cm in diameter.
(§2) Biopsy tissue was surgically implanted in the hind limbs of anesthetized SCID mice and passaged through succeeding generations (32).
Myeloma tumors (LAGκ-1A or LAGκ-1B) were excised from an anesthetized donor mouse, sectioned into 20 to 40 mm^3 pieces, and surgically implanted into the left superficial gluteal muscle of anesthetized naive SCID mice. Recipient mice received weekly injections of anti-asialo GM1 rabbit serum (Wako Bioproducts, Richmond, Va.) to further suppress immune activity. Mice were blindly assigned to one of the experimental groups, and treatment was initiated 7 to 21 days after tumor implantation. COMPOUND 1 was administered via oral gavage daily (0.5-5.0 mg/kg) or twice weekly (5-10 mg/kg). COMPOUND 1 was also administered twice weekly (W, F) via either IV injection (0.5-3.0 mg/kg) or oral gavage (10 mg/kg), as specified. […] Bortezomib (0.5 mg/kg) was dispensed twice weekly (T, Th) via IV injection. Control treatment consisted of COMPOUND 1 diluent (3.2 mL 5% mannitol and 800 μL propylene glycol) alone.
(§3) As a direct measurement of tumor growth, calipers were used to assess tumor volume weekly, and the formula for an ellipsoid volume was applied ( 4/3π×[width/2]^2×[length/2]).
(§4) Percent inhibition of tumor growth is represented as the tumor volume of the test drug group over the tumor volume of the untreated group (T/C). The optimal value is the minimal T/C ratio that reflects the maximal tumor growth inhibition achieved. The criterion for efficacy for the T/C ratio is ≦42%, according to National Cancer Institute (NCI) standard criteria (44).
(§5) Efficacy of drug therapy against tumors was standardized to the time (t) required for the untreated tumor to grow to a determined size based on the greatest difference in time to reach a tumor volume between the control and treatment group. This value can be represented as the growth delay (in days) between treated and control (tt−tc) (44).
(§6) Tumor growth and hIgG levels were analyzed in terms of treatment group means and standard error. Student's t-test was applied to determine the statistical significance of differences between treatment groups. Minimal significance level was P<0.05.

LAGκ-1A tumor = experiment: Intramuscular LAGκ-1A tumor xenograft model (serum hIgG, tumor volume); conditions: alone or together
Procedure: as §1, §2
Myeloma tumors (LAGκ-1A or LAGκ-1B) were excised from an anesthetized donor mouse, sectioned into 20 to 40 mm^3 pieces, and surgically implanted into the left superficial gluteal muscle of anesthetized naive SCID mice. Recipient mice received weekly injections of anti-asialo GM1 rabbit serum (Wako Bioproducts, Richmond, Va.) to further suppress immune activity. Mice were blindly assigned to one of the experimental groups, and treatment was initiated 7 to 21 days after tumor implantation. COMPOUND 1 was administered via oral gavage daily (0.5-5.0 mg/kg) or twice weekly (5-10 mg/kg). COMPOUND 1 was also administered twice weekly (W, F) via either IV injection (0.5-3.0 mg/kg) or oral gavage (10 mg/kg), as specified. Melphalan (1 mg/kg) was provided via weekly intraperitoneal (IP) injections (W). Bortezomib (0.5 mg/kg) was dispensed twice weekly (T, Th) via IV injection. Control treatment consisted of COMPOUND 1 diluent (3.2 mL 5% mannitol and 800 μL propylene glycol) alone.
Mice bearing MM tumors underwent weekly retro-orbital bleeds. Resulting samples were spun at 13,000 rpm for 30 minutes to isolate serum. The hIgG ELISA kit (Bethyl Laboratories, Montgomery, Tex.) was used according to the manufacturer's specifications. Absorbance at 450 nm with a reference wavelength of 550 nm was determined on a μQuant microplate spectrophotometer with KC Junior software (Bio-Tek Instruments, Winooski, Vt.). Data graphed are the mean±SEM with n=7-8 mice/group.
as §3, §4, §5, §6

RPMI8226 cells [3] = experiment: Cell viability assay (MTS assay), RPMI8226 cells; type: cell-based, human; conditions: Homo sapiens, RPMI-8226, 48 h, read-out: decrease in cell viability
Procedure: Combination indices (CIs) were calculated separately for each combination. […] CIs between 0.9 and 1.1 were considered to indicate additive drug effects (31).

[4] = bortezomib 0.5 mg/kg IV, COMPOUND 1 1 mg/kg IV, alone or together

| Structure (SMILES) | viability at 48 h, 9 nM (in vitro) | AIF expression vs vehicle-treated tumors [1] | proportion of cells in early apoptosis (PrI−/Annexin V+) (RPMI8226 cells [2]) | cytotoxicity at 0.0005 µM (MM1S cells) | effect on growth of CD138-negative MM cells (CD138-negative MM cells) | days to tumor progression (LAGκ-1B tumor; [4]) | survival longer than vehicle-treated mice (LAGκ-1B tumor; [4]) | tumor growth vs vehicle (LAGκ-1B tumor; bortezomib 0.5 mg/kg IV, COMPOUND 1 1 mg/kg IV, alone or together, combination after 21 days P=0.0014) | drug-related / toxicity-related deaths (LAGκ-1B tumor; mouse, in vivo) | serum hIgG levels and tumor volume vs vehicle (LAGκ-1A tumor; COMPOUND 1 1 mg/kg IV, bortezomib 0.5 mg/kg IV, twice weekly) | cytotoxicity at 40 µM (RPMI8226 cells [3]) | tumor volume (LAGκ-1B tumor; melphalan 3 mg/kg IP weekly, COMPOUND 1 1 mg/kg IV twice weekly, alone or together, three weeks) | serum hIgG levels and tumor volume vs vehicle (LAGκ-1A tumor; melphalan 1 mg/kg IP weekly, COMPOUND 1 1 mg/kg IV twice weekly, 3 weeks) |
| --- | --- | --- | --- | --- | --- | --- | --- | --- | --- | --- | --- | --- | --- |
| CC(C)C[C@H](NC(=O)[C@H](Cc1ccccc1)NC(=O)c1cnccn1)B(O)O [bortezomib, [(1R)-3-methyl-1-({(2S)-3-phenyl-2-[(pyrazin-2-ylcarbonyl)amino]propanoyl}amino)butyl]boronic acid, reference compound] | ~85% | elevated AIF expression | 17.5 % of cells | ~16% | little effect | 35 days | 20% | only modestly suppresses | one death each | only partially inhibited |  |  |  |
| N[C@@H](Cc1ccc(N(CCCl)CCCl)cc1)C(=O)O [melphalan, 4-[bis(2-chloroethyl)amino]-L-phenylalanine, reference compound] |  |  |  |  |  |  |  |  |  |  | ~30% | partially inhibited | no effect |
